Measured values as given in patent US4514573A, “Isoprenylamine derivatives” (priority 1981, dated 1985).

Key:
[1] = system: vaccinia virus; assay type: cell-based; details: 50 n molar concentration, Vero cells, in vitro
[2] = system: tumor cells KN7 -8; experiment: Anti-tumor activity in mice inoculated with tumor cells; assay type: in vivo, Balb/c male mice; details: 30 mg/kg intraperitoneally, 24 hours before inoculation and on second and fifth day after; 6 mice per group
Excerpt: Groups, each consisting of 6 Balb/c male mice weighing about 20 g, were intraperitoneally administered 5×10^5 of tumor cells KN7 -8.

SMILES: CC(C)=CCCC(C)=CCCC(C)=CCCC(C)=CCCC(C)=CCCC(C)=CCCC(C)=CCCC(C)=CCCC(C)=CCNCc1ccc(C)cc1C
- Anti-vaccinia virus activity Plaque inhibition rate % [1]: 9.8%

SMILES: CC(C)=CCCC(C)=CCCC(C)=CCCC(C)=CCCC(C)=CCCC(C)=CCCC(C)=CCCC(C)=CCCC(C)=CCCC(C)=CCNCc1cccc(CN)c1 [drawing 58]
- Anti-tumor activity (Survivor on the 30th day) [2]: 1/6

SMILES: COc1ccc(CNCC=C(C)CCCC(C)CCCC(C)CCCC(C)C)cc1OC (stereo not drawn) [drawing 90]
- Anti-vaccinia virus activity Plaque inhibition rate % [1]: 22.0%
